In patent publication EP0584223B1, “NOVEL IMMUNOSUPPRESSIVE COMPOUNDS” (VERTEX PHARMACEUTICALS INCORPORATED, priority 1991, dated 1992):
Like-named read-outs stand apart in the source and are kept apart here.

Assays:
[1] = tested on: human peripheral blood lymphocytes (PBC); test: Mitogenesis assay, PMA plus ionomycin stimulated proliferation; type: cell-based; conditions: Lymphocyte, read-out: PMA
[2] = tested on: PBLs stimulated with LB human viral-transformed B lymphoblastoid cell line; test: MLR bioassay, PBLs stimulated with LB cells; type: cell-based; conditions: read-out: LB
Excerpt: (§1) Fresh peripheral blood lymphocytes (PBLs) from LeukoPak cells or whole blood from random normal blood donors (tested HIV-negative and hepatitis negative) are isolated and separated by density centrifugation over Histopaque 1077 (Sigma Chemical Co., St. Louis, MO). The murine CTLL cytotoxic T cell line and the human Jurkat T cell line are from ATCC (CTLL-2 ATCC TIB214, JURKAT CLONE E6-1 ATCC TIBl52). The human allogeneic B cell lines used for activation of the fresh PBLs are EBV-transformed lymphocytes from normal healthy adult donors with two completely different HLA haplotypes. All cell lines were routinely tested for the presence of Mycoplasma contamination using the Gibco Mycotect test kit and are Mycoplasma-free. Culture medium consists of RPMI 1640 (Gibco, Grand Island, NY) containing penicillin (50 U/ml) and streptomycin (50 µg/ml), L-glutamine 2 mM, 2 mercaptoethanol (5 x 10^-5), 10% heat-inactivated FCS and 10 mM HEPES.
(§2) All chemical stocks were dissolved in DMSO.
(§3) Antigen activated proliferation of PBLs in a primary mixed lymphocyte reaction was assessed in the presence or absence of different concentrations of tested compounds and control drugs. 5 x 10^4 fresh PBLs were stimulated with 5 x 10^3 of Mitomycin C treated-allogeneic EBV-transformed […] cells, LB and JVM, in a final volume of 200 µl per well in 96-well round-bottomed plates (Mishell, B.B. and S.M. Shiigi, Selected Methods in Cellular Immunology W.H. Freeman and Co., San Francisco, CA (1980); Nelson, P.A. et al., Transplantation 50:286 (1990)). Cultures were pulsed on day 6, harvested 24 h later and counted as in previous section.

[3] = tested on: PBLs stimulated with JVM human viral-transformed B lymphoblastoid cell line; test: MLR bioassay, PBLs stimulated with JVM cells; type: cell-based; conditions: read-out: JVM
Excerpt: as §1, §2, §3

FKBP = FKBP (Homo sapiens, UniProt P62942); test: Inhibition of FKBP PPIase (rotamase) activity, chymotrypsin-coupled assay; type: biochemical; conditions: apparent Ki
Chain of FKBP (P62942 whole entry): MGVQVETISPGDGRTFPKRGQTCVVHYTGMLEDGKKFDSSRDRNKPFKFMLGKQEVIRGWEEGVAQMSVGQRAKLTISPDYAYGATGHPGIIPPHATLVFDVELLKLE
Excerpt: The inhibition of the PPIase (rotamase) enzyme activity of the FKBP (apparent "Ki" values) can also be measured according to the methods described by either Harding, M.W. et al., Nature 341:758-760 (1989) or Siekierka, J.J. et al., Nature 341:755-757 (1989). The cis-trans isomerization of the […] peptide bond in a model substrate, N-succinyl-Ala-Ala-Pro-Phe-p-nitroanilide, is monitored spectrophotometrically in a coupled assay with chymotrypsin, which releases 4-nitroanilide from the trans form of the substrate. Fischer, G. et al., Nature 337:476-478 (1989). The inhibitory effect of the addition of different concentrations of inhibitor on the extent of the reaction is determined, and analysis of the change in first order rate constant as a function of inhibitor concentration yields an estimate of the apparent Ki value.

FK-506 binding protein = FK-506 binding protein (Homo sapiens, UniProt P62942); test: Competitive binding assay with [3H]dihydro-FK-506; conditions: binding to FKBP; apparent Kd, competition with [3H]dihydro-FK-506
Chain of FK-506 binding protein (P62942 whole entry): as above

[4] = tested on: CTLL-20 murine T cell line; test: IL-2 microassay, IL-2 dependent CTLL proliferation; type: cell-based; conditions: Mus musculus, read-out: CTLL
[5] = tested on: human peripheral blood lymphocytes (PBC); test: Mitogenesis assay, OKT3 stimulated proliferation; type: cell-based; conditions: Lymphocyte, read-out: OKT3
[6] = Bioavailability in rats, blood levels by HPLC; type: in vivo; conditions: rat, 50 mg/kg single dose, whole blood
Description: Bioavailability of compound (20) was determined in rats. A single dose of 50 mg/kg was administered by oral gavage or intraperitoneal (IP) injection in a vehicle consisting of olive oil-10% ethanol. Thereafter, animals were sacrificed at 0.5, 1, 2, 4, 8 and 12 hr, blood was collected into sodium heparin and immediately frozen. Whole blood was extracted with acetonitrile-methanol (90/10 vol:vol) and the concentration of compound per ml of blood was determined by HPLC. […] After oral administration, blood levels of 0.5µM, 1µM, 2µM, 12µM, and 3µM were measured at .05h, 1h, 2h, 4h, and 8h, respectively.

[7] = Bioavailability in rats, blood levels by HPLC; type: in vivo; conditions: rat, oral gavage, 50 mg/kg single dose, .05h, whole blood
CTLL cells = test: Table 3 assay 4: CTLL proliferation + IL-2; type: cell-based; conditions: Mus musculus, exogenous IL-2, (3H)TdR incorporation
[8] = tested on: T-cell clone stimulated with antibody to the T-cell receptor (TCR) and antibody to CD2; test: Table 3 assay 2: T-cell hybridoma + TCR/CD2 proliferation; type: cell-based; conditions: (3H)TdR incorporation, estimated
[9] = tested on: fresh human peripheral blood lymphocytes; test: Table 3 assay 1: human PBL + OKT3 proliferation; type: cell-based; conditions: Lymphocyte, OKT3 antibody (anti-CD3) stimulation, (3H)TdR incorporation, estimated
T-cell hybridoma = test: Table 3 assay 3: apoptosis, activation-induced (anti-CD3) cell death; type: cell-based; conditions: at 1µg/ml; inhibition of activation-induced cell death, viable cell count
[10] = mixed lymphocyte reaction, LB stimulator cells, inhibition of proliferation
[11] = mixed lymphocyte reaction, JVM stimulator cells, inhibition of proliferation
[12] = inhibition of proliferation of cytotoxic T cells stimulated by IL-2
[13] = OKT3 (10^-4 dilution final), inhibition of proliferation, 3H-thymidine

Ki (FKBP) [µM] | Kd (FK-506 binding protein) [µM] | Structure (SMILES) | IC50 ([1]; 3 h) [µM] | IC50 [2, 10] [µM] | IC50 [3, 11] [µM] | IC50 [4, 12] [µM] | IC50 [5, 13] [µM] | other results
0.027 | 0.03 | COc1cc(C(=O)C(=O)N2CCCC[C@H]2C(=O)OC(CCCc2ccccc2)/C(C)=C/[C@H]2CC[C@H](O)CC2)cc(OC)c1OC (mixture of isomers) [Compound 8, (R and S)-(E)-1-[trans-(4-Hydroxycyclohexyl)]-2-methyl-6-phenyl-3-hex-1-enyl (S)-N-(3,4,5-trimethoxyphenylglyoxyl)pipecolate] | 4 | 10 | 10 | 4 | 5 | 
0.08 | 0.04 | COc1cc(C(=O)C(=O)N2CCCC[C@H]2C(=O)OC(CCCc2ccccc2)c2ccccc2)cc(OC)c1OC (stereo partly drawn) [Compound 6] | 8 | 10 | 9 | 5 | 8 | 
0.004 | 0.027 | COc1ccc(CCC(CCCc2ccccc2)OC(=O)[C@@H]2CCCCN2C(=O)C(=O)c2cc(OC)c(OC)c(OC)c2)cc1 (stereo partly drawn) [Compound 13] | 8 | > 10 | > 10 | 9 | 10 | 
0.001 | 0.004 | COc1cc(C(=O)C(=O)N2CCCC[C@H]2C(=O)OC(CCCc2ccccc2)CCCc2ccccn2)cc(OC)c1OC (stereo partly drawn) [Compound 20] | 1.7 | 2 | 2.5 | 2 | 2 | concentration at 0.5 h ([6]; IP, 0.5h): 0.7 µM; concentration at 1 h ([6]; IP): 22 µM; concentration at 2 h ([6]; IP): 225 µM; concentration at 4 h ([6]; IP): 45 µM; concentration at 8 h ([6]; IP): 1 µM; concentration at 1 h ([6]; oral gavage): 1 µM; concentration at 2 h ([6]; oral gavage): 2 µM; concentration at 4 h ([6]; oral gavage): 12 µM; concentration at 8 h ([6]; oral gavage): 3 µM; concentration at 0.05 h [7]: 0.5 µM
0.004 | 0.019 | COc1cc(C(=O)C(=O)N2CCCC[C@H]2C(=O)OC(CCCc2ccccc2)CCCc2ccc(CO)cc2)cc(OC)c1OC (stereo partly drawn) [Compound 26] | 3 | 3 | 2.5 | 4 | 1 | 
0.002 | 0.003 | CC(C)Oc1cccc(C(=O)C(=O)N2CCCC[C@H]2C(=O)OC(CCCc2ccccc2)CCCc2cccnc2)c1 (stereo partly drawn) [Compound 29] | 10 | > 10 | > 10 | 4 | 8 | 
0.001 | 0.04 | COc1cc(C(=O)C(=O)N2CCCC[C@H]2C(=O)OC(CCCc2ccccc2)CCCc2cccc(CO)c2)cc(OC)c1OC (stereo partly drawn) [Compound 35] | 2.7 | 2.5 | 3 | 2.5 | 6.5 | 
0.004 | 0.02 | COc1cc(C(=O)C(=O)N2CCCC[C@H]2C(=O)OC(CCCc2ccccc2)CCCc2cccc(C(=O)O)c2)cc(OC)c1OC (stereo partly drawn) [Compound 36] | > 10 | > 10 | 9 | > 10 | > 10 | 
0.007 | 0.14 | COc1cc(C(=O)C(=O)N2CCCC[C@H]2C(=O)OC(CCCc2ccccc2)c2cccc(CO)c2)cc(OC)c1OC (stereo partly drawn) [Compound 37] | 2 | 1.2 | 2.2 | 1.2 | 5 | 
 |  | C=CC[C@@H]1/C=C(\C)C[C@H](C)C[C@H](OC)[C@H]2O[C@@](O)(C(=O)C(=O)N3CCCC[C@H]3C(=O)O[C@H](/C(C)=C/[C@@H]3CC[C@@H](O)[C@H](OC)C3)[C@H](C)[C@@H](O)CC1=O)[C@H](C)C[C@@H]2OC [FK-506] |  |  |  |  |  | IC50 (CTLL cells): > 1 mg/L; IC50 [8]: < 1 mg/L; IC50 [9]: < 1 mg/L
 |  | CO[C@H]1C[C@@H]2CC[C@@H](C)[C@@](O)(O2)C(=O)C(=O)N2CCCC[C@H]2C(=O)O[C@H]([C@H](C)C[C@@H]2CC[C@@H](O)[C@H](OC)C2)CC(=O)[C@H](C)/C=C(\C)[C@@H](O)[C@@H](OC)C(=O)[C@H](C)C[C@H](C)/C=C/C=C/C=C/1C [Rapamycin] |  |  |  |  |  | IC50 (CTLL cells): ~0.01 mg/L; Apoptosis (T-cell hybridoma): Inactive at 1µg/ml; IC50 [8]: < 1 mg/L; IC50 [9]: < 1 mg/L

Structure (SMILES) | Ki (FKBP) [µM] | Kd (FK-506 binding protein) [µM] | IC50 ([1]; 3 h) [µM] | IC50 [2, 10] [µM] | IC50 [3, 11] [µM] | IC50 [4, 12] [µM] | IC50 [5, 13] [µM] | other results
COc1ccc(CCCC(CCCc2ccccc2)OC(=O)[C@@H]2CCCCN2C(=O)C(=O)c2cc(OC)c(OC)c(OC)c2)cc1 (stereo partly drawn) [Compound 17] | 0.003 | 0.068 |  |  |  |  |  | IC50 [1]: 4.5 µM; IC50 [2]: 5.5 µM; IC50 [3]: 7 µM; IC50 ([4]; CTLL): > 10 µM; IC50 [5]: 2.5 µM
